Results as given in article PMC9116245, “New 1,2,3-triazole linked ciprofloxacin-chalcones induce DNA damage by inhibiting human topoisomerase I& II and tubulin polymerization” (Journal of Enzyme Inhibition and Medicinal Chemistry, 2022).

How the values were obtained:
HCT116 cells = test: Analysis of cell cycle distribution; format: cell-based, human; conditions: HCT116, different concentrations, 24 h
Description: Generally, the mammalian cells counteract the DNA damage by different mechanisms including the cell cycle arrest to allow the cell to repair the damage. There are 2 checkpoints that control DNA damage. The first checkpoint is at the G1/S transition while the other checkpoint is at the G2/M transition. To cover the mechanisms of the synthesised compounds in inhibiting cell proliferation, we analysed the distribution of cell cycle of HCT116 cells following the treatment with different doses of 4a, 4b, 4e, 4i, and 4j. […] See Supplementary Appendix A.

γH2AX = γH2AX immunofluorescence in HCT116 cells; format: cell-based, human; conditions: HCT116, IC50 of compound
Description: DNA damage is a major reason for inhibiting proliferation and inducing cytotoxicity in cancer cells as well as the main downstream cascade for the Topo-I, Top-II, and tubulin polymerisation inhibition. The phosphorylation of the histone H2AX always occurs after DNA damage forming double-stranded breaks (DSBs). Therefore, we tested the capability of the potent prepared compounds to trigger DNA double strand breaks through detection of the phosphorylation of γH2AX using two different techniques, Immunofluorescence, and western blotting.
(§1) HCT116 cells were cultured and treated with the IC50 of the potent compounds (4a, 4b, 4e, 4i, and 4j) or DMSO (control), fixed, permeabilized, and they were incubated with either γH2AX or α-tubulin antibody as the reported procedure in the literature. Confocal images were captured using a Confocal Microscope with a 63X objective. All images were processed using ImageJ software. See Supplementary Appendix A.

[1] = target: T1, recombinant human DNA topoisomerase I (Homo sapiens, UniProt P11387); test: Human DNA Topoisomerase I Assay Kit (ProFoldin); format: biochemical; conditions: compounds at their IC50 values, reference camptothecin
T1 construct: purchased Sigma-Aldrich
T1 sequence (P11387 1-765): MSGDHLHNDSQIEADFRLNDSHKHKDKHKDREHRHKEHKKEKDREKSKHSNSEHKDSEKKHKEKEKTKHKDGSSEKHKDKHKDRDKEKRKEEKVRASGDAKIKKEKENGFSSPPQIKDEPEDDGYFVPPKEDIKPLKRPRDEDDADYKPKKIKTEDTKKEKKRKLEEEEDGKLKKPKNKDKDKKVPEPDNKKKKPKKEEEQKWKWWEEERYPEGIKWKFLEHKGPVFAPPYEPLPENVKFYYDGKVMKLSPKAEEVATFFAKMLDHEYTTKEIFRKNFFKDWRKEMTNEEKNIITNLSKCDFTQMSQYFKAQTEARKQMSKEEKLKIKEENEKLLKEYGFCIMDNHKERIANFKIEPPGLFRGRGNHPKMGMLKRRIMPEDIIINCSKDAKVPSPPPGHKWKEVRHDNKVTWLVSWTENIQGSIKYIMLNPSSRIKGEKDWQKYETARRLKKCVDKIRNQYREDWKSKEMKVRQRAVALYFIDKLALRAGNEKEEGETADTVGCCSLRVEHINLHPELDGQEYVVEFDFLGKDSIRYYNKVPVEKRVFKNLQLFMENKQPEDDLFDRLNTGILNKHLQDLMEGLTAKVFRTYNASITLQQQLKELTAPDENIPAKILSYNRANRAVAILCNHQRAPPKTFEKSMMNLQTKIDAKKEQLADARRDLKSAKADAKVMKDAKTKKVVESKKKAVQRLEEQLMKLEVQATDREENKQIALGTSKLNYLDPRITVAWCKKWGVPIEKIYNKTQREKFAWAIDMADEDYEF

tubulin polymerisation = test: Tubulin immunofluorescence microscopy in HCT116 cells; format: cell-based, human; conditions: HCT116, IC50 of compound, 36 h
Method: The process of tubulin polymerisation in the cells is important for the completion of mitosis and is targeted for cancer treatment. It has been reported that the suppression of tubulin polymerisation will arrest the cells at the G2/M and it eventually leads to cell death. To test the tubulin-disruptive effect of the CP hybrids, HCT116 cells were analysed by immunocytochemistry. HCT116 cells were incubated for 36 h with IC50 of the CP hybrids (4a, 4b, 4e, 4i, and 4j), nocodazole (a well-known tubulin polymerisation inhibitor, as a positive control), DMSO or Paclitaxel (a well-known tubulin polymerisation inducer, as a negative control), and tubulin was visualised by immunofluorescence microscopy. An antibody for α-tubulin was used. […] Moreover, a Western blot was performed to verify the tubulin polymerisation inhibition ability of the synthesised compounds (Figure 8(B)). The level of polymerised tubulin was decreased in HCT116 cells treated with IC50 values of CP hybrids 4a, 4b, 4e, 4i, 4j, or nocodazole.
as §1

Topo IIα = target: T2, Topo IIα (Homo sapiens, UniProt P11388); test: Human Topoisomerase II assay kit (TG1001); format: biochemical; conditions: 10 µM
T2 construct: purchased Topogen Inc. TG1001
Method: Second, the inhibitory activity of Topo IIα was evaluated for compounds 4a, 4b, 4e, 4i, and 4j utilising Human Topoisomerase II assay kit (TG1001, Topogen Inc.). […] The above results are compatible with our design of these hybrids as Top-II inhibitors.
The inhibitory activity of the selected ciprofloxacin hybrids on human Top-II was tested using a Human Topoisomerase II assay kit (TG1001, Topogen Inc.). In this assay, 1% agarose gel was used, and the compounds were tested at two different concentrations, 10 and 100 µM. Also, etoposide was used as a positive control in this experiment. The assay was performed according to the manufacturer’s protocol. The image of the electrophoretic gel was captured using an imaging system (iBright-CL1500, Thermo Fisher Scientific).

ATR/CHK1/Cdc25C pathway = test: Western blot of ATR-Chk1-Cdc25C cascade in HCT116 cells; format: cell-based, human
Method: To clarify the molecular mechanism responsible for inducing G2/M phase arrest in HCT116 following the treatment with the synthesised compounds, the signalling in the checkpoint pathway that regulates the G2/M transition was investigated. The mammalian cells respond to the DNA damage through 2 different kinase-signalling cascades (ATR-Chk1 and ATM-Chk2). First, the effect of the synthesised compounds on ATM and ATR phosphorylation was tested. […] Then, the phosphorylation of downstream effectors of ATM/ATR, phospho-Chk1-S269, and phospho-Chk2-T68 kinases was explored. […] It is well known that in vitro activation of Chk1 phosphorylates Cdc25C on serine-216. Therefore, the impact of the synthesised compounds on the Cdc25C phosphorylation at Ser-216 was investigated.
Western blotting analysis for HCT116 cells was performed according to the reported procedure in the literature[77–79] to determine the effects of CP hybrids; 4a, 4b, 4e, 4i, and 4j on the expression of polymerised tubulin, γH2AX, p-ATR, p-CHK1, and p-Cdc25C by using the appropriate antibody. See Supplementary Appendix A.

T2 sequence (P11388 whole entry): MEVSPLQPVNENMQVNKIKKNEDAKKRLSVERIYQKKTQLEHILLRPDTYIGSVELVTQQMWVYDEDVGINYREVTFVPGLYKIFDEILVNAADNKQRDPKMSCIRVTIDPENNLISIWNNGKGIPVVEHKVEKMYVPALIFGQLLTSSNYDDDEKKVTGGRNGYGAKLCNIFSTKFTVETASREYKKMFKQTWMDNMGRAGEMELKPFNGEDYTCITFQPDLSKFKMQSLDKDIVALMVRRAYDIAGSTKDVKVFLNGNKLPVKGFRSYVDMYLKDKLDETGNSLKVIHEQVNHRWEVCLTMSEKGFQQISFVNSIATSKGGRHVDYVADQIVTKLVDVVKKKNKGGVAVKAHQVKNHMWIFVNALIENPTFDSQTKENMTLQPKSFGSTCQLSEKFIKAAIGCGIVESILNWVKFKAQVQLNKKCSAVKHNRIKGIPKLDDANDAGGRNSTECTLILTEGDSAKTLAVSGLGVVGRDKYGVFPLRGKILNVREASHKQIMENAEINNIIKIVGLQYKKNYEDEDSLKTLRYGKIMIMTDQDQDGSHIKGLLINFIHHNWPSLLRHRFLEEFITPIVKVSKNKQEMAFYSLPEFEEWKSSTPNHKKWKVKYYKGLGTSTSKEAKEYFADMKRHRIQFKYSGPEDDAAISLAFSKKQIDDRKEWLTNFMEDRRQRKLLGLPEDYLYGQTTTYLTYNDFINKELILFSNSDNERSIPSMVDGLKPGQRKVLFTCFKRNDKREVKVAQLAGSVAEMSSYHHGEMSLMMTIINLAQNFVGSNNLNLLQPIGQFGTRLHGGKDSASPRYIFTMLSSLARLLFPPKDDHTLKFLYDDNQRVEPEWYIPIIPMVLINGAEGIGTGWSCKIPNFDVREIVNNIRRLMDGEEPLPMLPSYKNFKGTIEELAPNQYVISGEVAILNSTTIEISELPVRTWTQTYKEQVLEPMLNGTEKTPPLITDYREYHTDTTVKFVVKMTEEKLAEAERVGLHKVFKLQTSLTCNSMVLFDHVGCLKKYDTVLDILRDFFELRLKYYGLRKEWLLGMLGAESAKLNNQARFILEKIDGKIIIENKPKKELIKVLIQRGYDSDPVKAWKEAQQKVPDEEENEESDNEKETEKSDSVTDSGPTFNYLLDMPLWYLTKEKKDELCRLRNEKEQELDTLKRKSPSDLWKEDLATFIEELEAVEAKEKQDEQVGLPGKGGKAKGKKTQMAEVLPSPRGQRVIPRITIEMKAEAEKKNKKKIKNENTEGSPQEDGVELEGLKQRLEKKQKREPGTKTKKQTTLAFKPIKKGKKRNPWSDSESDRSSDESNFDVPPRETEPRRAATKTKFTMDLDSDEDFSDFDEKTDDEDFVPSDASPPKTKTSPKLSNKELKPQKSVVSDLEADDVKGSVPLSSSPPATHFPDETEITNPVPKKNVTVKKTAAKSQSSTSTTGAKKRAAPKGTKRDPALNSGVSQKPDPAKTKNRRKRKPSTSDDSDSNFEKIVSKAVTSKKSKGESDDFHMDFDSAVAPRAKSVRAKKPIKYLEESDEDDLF

Row | SMILES | cell cycle distribution (HCT116 cells) | γH2AX foci formation (γH2AX) | Top-I inhibitory activity, enzyme assay kit [1] | tubulin polymerisation, morphological changes by immunofluorescence (tubulin polymerisation) | Topo-II inhibitory activity (Topo IIα) | expressions of p-ATR, p-CHK1, and p-Cdc25C, Western blot (ATR/CHK1/Cdc25C pathway) | melting point [°C]
1 | O=C(/C=C/c1ccccc1)c1ccc(-n2cc(CN3CCN(c4cc5c(cc4F)c(=O)c(C(=O)O)cn5C4CC4)CC3)nn2)cc1 [Compound 4a, (E) 7-(4-((1–(4-Cinnamoylphenyl)-1H-1,2,3-triazol-4-yl)methyl)piperazin-1-yl)-1-cyclopropyl-6-fluoro-4-oxo-1,4-dihydroquinoline-3-carboxylic acid] | induced G2/M phase cell cycle arrest in a concentration-dependent manner | induced γH2AX foci formation | highest Top-I inhibitory activity | significant tubulin polymerisation inhibition | stronger inhibitory activity than 4b, 4i, and ETO | increased | 
2 | O=C(/C=C/c1cccc(Cl)c1)c1ccc(-n2cc(CN3CCN(c4cc5c(cc4F)c(=O)c(C(=O)O)cn5C4CC4)CC3)nn2)cc1 [Compound 4b, (E)-7-(4-((1–(4-(3-(3-chlorophenyl)acryloyl)phenyl)-1H-1,2,3-triazol-4-yl)methyl)piperazin-1-yl)-1-cyclopropyl-6-fluoro-4-oxo-1,4-dihydroquinoline-3-carboxylic acid] | induced G2/M phase cell cycle arrest in a concentration-dependent manner | induced γH2AX foci formation |  | significant tubulin polymerisation inhibition |  | increased | 
3 | O=C(/C=C/c1ccc(Cl)cc1)c1ccc(-n2cc(CN3CCN(c4cc5c(cc4F)c(=O)c(C(=O)O)cn5C4CC4)CC3)nn2)cc1 [Compound 4c, (E)-7-(4-((1-(4-(3-(4-chlorophenyl)acryloyl)phenyl)-1H-1,2,3-triazol-4-yl)methyl)piperazin-1-yl)-1-cyclopropyl-6-fluoro-4-oxo-1,4-dihydroquinoline-3-carboxylic acid] |  |  |  |  |  |  | 257 to 259
4 | O=C(/C=C/c1ccc(Br)cc1)c1ccc(-n2cc(CN3CCN(c4cc5c(cc4F)c(=O)c(C(=O)O)cn5C4CC4)CC3)nn2)cc1 [Compound 4d, (E)-7-(4-((1-(4-(3-(4-bromophenyl)acryloyl)phenyl)-1H-1,2,3-triazol-4-yl)methyl)piperazin-1-yl)-1-cyclopropyl-6-fluoro-4-oxo-1,4-dihydroquinoline-3-carboxylic acid] |  |  |  |  |  |  | 247 to 249
5 | O=C(/C=C/c1ccc(F)cc1)c1ccc(-n2cc(CN3CCN(c4cc5c(cc4F)c(=O)c(C(=O)O)cn5C4CC4)CC3)nn2)cc1 [Compound 4e, (E)-1-cyclopropyl-6-fluoro-7–(4-((1–(4-(3-(4-fluorophenyl)acryloyl)phenyl)-1H-1,2,3-triazol-4-yl)methyl)piperazin-1-yl)-4-oxo-1,4-dihydroquinoline-3-carboxylic acid] | induced G2/M phase cell cycle arrest in a concentration-dependent manner | induced γH2AX foci formation | comparable to camptothecin | significant tubulin polymerisation inhibition | stronger inhibitory activity than 4b, 4i, and ETO | increased | 
6 | Cc1ccc(/C=C/C(=O)c2ccc(-n3cc(CN4CCN(c5cc6c(cc5F)c(=O)c(C(=O)O)cn6C5CC5)CC4)nn3)cc2)cc1 [Compound 4f, (E)-1-cyclopropyl-6-fluoro-4-oxo-7-(4-((1-(4-(3-(p-tolyl)acryloyl)phenyl)-1H-1,2,3-triazol-4-yl)methyl)piperazin-1-yl)-1,4-dihydroquinoline-3-carboxylic acid] |  |  |  |  |  |  | 259 to 261
7 | COc1ccc(/C=C/C(=O)c2ccc(-n3cc(CN4CCN(c5cc6c(cc5F)c(=O)c(C(=O)O)cn6C5CC5)CC4)nn3)cc2)cc1 [Compound 4g, (E)-1-Cyclopropyl-6-fluoro-7-(4-((1-(4-(3-(4-methoxyphenyl)acryloyl)phenyl)-1H-1,2,3-triazol-4-yl)methyl)piperazin-1-yl)-4-oxo-1,4-dihydroquinoline-3-carboxylic acid] |  |  |  |  |  |  | 254 to 257
8 | CN(C)c1ccc(/C=C/C(=O)c2ccc(-n3cc(CN4CCN(c5cc6c(cc5F)c(=O)c(C(=O)O)cn6C5CC5)CC4)nn3)cc2)cc1 [Compound 4h, (E)-1-cyclopropyl-7–(4-((1–(4-(3-(4-(dimethylamino)phenyl)acryloyl)phenyl)-1H-1,2,3-triazol-4-yl)methyl)piperazin-1-yl)-6-fluoro-4-oxo-1,4-dihydroquinoline-3-carboxylic acid] |  |  |  |  |  |  | 177 to 179
9 | COc1ccc(/C=C/C(=O)c2ccc(-n3cc(CN4CCN(c5cc6c(cc5F)c(=O)c(C(=O)O)cn6C5CC5)CC4)nn3)cc2)cc1OC [Compound 4i, (E)-1-cyclopropyl-7-(4-((1-(4-(3–(3,4-dimethoxyphenyl)acryloyl)phenyl)-1H-1,2,3-triazol-4-yl)methyl)piperazin-1-yl)-6-fluoro-4-oxo-1,4-dihydroquinoline-3-carboxylic acid] | induced G2/M phase cell cycle arrest in a concentration-dependent manner | induced γH2AX foci formation |  | significant tubulin polymerisation inhibition |  | increased | 
